The record followed here is patent US20190031618A1, “BENZIMIDAZOLE DERIVATIVES USEFUL AS CB-1 INVERSE AGONISTS” (Janssen Pharmaceutica NV, priority 2015, published 2019).

The target of experiment [1] is Human CB1R (Cannabinoid receptor 1) (Homo sapiens, UniProt P21554). The experiment in a line: CB-1 in vitro cAMP (HTRF) assay. The conditions noted are these: HEK cells, cAMP HTRF, 250 nM forskolin; mean where tested more than once; read-out: CB1 HEK_cAMP EC50. In kind it is cell-based. An excerpt:
(§1) CB1 and CB2 receptors are Gi-coupled GPCR. Activation of CB1 and CB2 receptors results in a decrease in cAMP production. An inverse agonist of the CB1 or CB2 receptor results in the opposite effect, an increase of cAMP production. The principle of this assay is based on HTRF® technology (Homogeneous Time-Resolved Fluorescence). The method is a competitive immunoassay between native cAMP produced by cells and the cAMP labeled with the fluorophore d2. The tracer binding is quantified by a Mab anti-cAMP labeled with Eu3+TBP-NHS Cryptate (supplied as part of the assay kit). The specific signal (i.e. energy transfer) is inversely proportional to the concentration of cAMP in the standard or sample.
Human CB1R (Cannabinoid receptor 1) was stably transfected in HEK-293 cells (DiscoveRx, cat: 93-0200C1). Human CB2R (Cannabinoid receptor 2) was stably transfected in HEK-293 cells (DiscoveRx, cat: 93-0201C1).
One day prior to experiments media was warmed to 37° C. and the cryo-stored cells were thawed in a 37° C. water bath. The cells were then added to media (10× volume) and the mixture was centrifuged at 1000 RPM for 5 min. The supernate was removed and the cells were re-suspended in media. A sample of the cell suspension was evaluated on a Cedex XS automated cell counter (Innovatis Systems) to determine viable cells/ml. Additional media was added to the cells to achieve a final cell density of 4E5 cells/mL. […] Cells were removed from Row P (location of cAMP standards). […] The cell plates were lidded and stored for 15 minutes in a hood, then transferred to an incubator (37° C., 5% CO2, 95% humidity) overnight.
Test compounds (60 μL, 10 mM) were added to Column 1 and 13 (A1 through N1 and A13 through L13). Test compounds were serially diluted 1/3 by transferring and mixing 20 μl sample with 40 μL DMSO.
DMSO (40 μL) was added to wells of 384 well V bottom polystyrene plate: O2 through O11, M14 through M23, N14 through N23, and O14 through O23. […] The control was serially diluted 1/3 by transferring and mixing 20 μl sample with 40 μL DMSO. This process resulted 11 doses per control, 10 mM to 0.5 μM.
Cells plated the day prior to the assay in clear bottom plates were viewed on an inverse microscope to ensure confluency in the range of 60-75%.
A FLEXDROP (Perkin Elmer) was cleaned with ethanol then water, and primed with Buffer 2. A 384 well V bottom polypropylene plate containing d2 labelled cAMP and a second 384 well V bottom polypropylene plate containing anti-cAMP was prepared (50 μl per well). Media as “dumped” from the cell plate and 30 μL Buffer 1 was added to each well using a Multidrop. The content of the cell plate was again “dumped” and 10 μL Buffer 2 was added to each well using a Flexdrop. […] The cell plate was mixed (Speed 6, Lab-Line Instruments Titer Plate Shaker) and centrifuged (1000 RPMs, 1 min). […] The cell plate was again mixed (speed 6) and centrifuged (1000 RPMs, 1 min). The cell plate was incubated for 30 minutes at room temperature (˜27° C.). The contents of row P were removed and the cAMP standard dilutions were added in duplicate to Row P (P1-12 and P13-24). After incubation, 6 μL d2 labelled cAMP and 6 μL of Anti-cAMP were added to all wells of the cell plate using a BioMek FX (Beckman Coulter). The cell plate was again mixed (speed 6) and centrifuged (1000 RPMs, 1 min) and was incubated for 60 minutes in the dark at room Temp (˜27° C.).
After this final incubation, the cell plate was read in HTRF mode (fluorescence at 665 nm and 620 nm) on an Envision plate Reader (Perkin Elmer). The Envision reader outputs a ratio of channel 1/channel 2 fluorescence×10,000 (Normalized signal (NS)). Amount of cAMP in nM was calculated for each well (based on NS) from a cAMP standard curve located on each plate (at P1-12 and P13-24). EC50 values were determined from a 4-point fit (Hill equation) of a single 11-point compound dosing. Hill slope was fixed at 1.0.
(In general: Time-resolved FRET reads energy transfer from a long-lived donor to a nearby acceptor.)

Experiment [2] addresses Human CB2R (Cannabinoid receptor 2) (Homo sapiens, UniProt P34972). The experiment in a line: CB-2 in vitro cAMP (HTRF) assay. The conditions noted are these: HEK cells, cAMP HTRF, 250 nM forskolin; mean where tested more than once; read-out: CB2 HEK_cAMP EC50. Type of experiment: cell-based.
Excerpt: as §1
Human CB1R (Cannabinoid receptor 1) was stably transfected in HEK-293 cells (DiscoveRx, cat: 93-0200C1). Human CB2R (Cannabinoid receptor 2) was stably transfected in HEK-293 cells (DiscoveRx, cat: 93-0201C1). Cell cultures were maintained in media: DMEM (Invitrogen Cat#12430-054) supplemented with 10% HI FBS (Invitrogen Cat#16140-071), 1% L-glutamine (Invitrogen Cat#25030-081), 0.2 mg/ml Hygromycin B (Invitrogen Cat#10687-010), 600 μg/mL G418 (Invitrogen Cat#10131-035), and 1× Penn/Strep (Invitrogen 15140-122). After cell expansion, aliquots were cryo-stored in media containing 5% DMSO (Pierce Cat#20684).
One day prior to experiments media was warmed to 37° C. and the cryo-stored cells were thawed in a 37° C. water bath. The cells were then added to media (10× volume) and the mixture was centrifuged at 1000 RPM for 5 min. The supernate was removed and the cells were re-suspended in media. A sample of the cell suspension was evaluated on a Cedex XS automated cell counter (Innovatis Systems) to determine viable cells/ml. Additional media was added to the cells to achieve a final cell density of 4E5 cells/mL. The cells were then plated into 384 well PDL white solid bottom plates (Greiner, Cat#781945) at 20 μL per well using a Multidrop (Thermo Scientific). Cells were removed from Row P (location of cAMP standards). Two columns of cells were plated into a clear bottom 384 well PDL coated plate (Greiner, Cat#781944) to view confluence the day of the assay. The cell plates were lidded and stored for 15 minutes in a hood, then transferred to an incubator (37° C., 5% CO2, 95% humidity) overnight.
DMSO was added to all wells of 384 well V bottom polystyrene plate (Greiner, Cat#781280) except to columns 1 and 13, rows O and P and wells M13-M23 and N13-N23. Test compounds (60 μL, 10 mM) were added to Column 1 and 13 (A1 through N1 and A13 through L13). Test compounds were serially diluted 1/3 by transferring and mixing 20 μl sample with 40 μL DMSO.
DMSO (40 μL) was added to wells of 384 well V bottom polystyrene plate: O2 through O11, M14 through M23, N14 through N23, and O14 through O23. AM630 (also known as [6-iodo-2-methyl-1-[2-(4-morpholinyl)ethyl]-1H-indol-3-yl](4-methoxyphenyl)-methanone, Cayman Chemical, Cat#10006974) (60 μL, 10 mM) was added to O1; and 1-(2,4-dichlorophenyl)-7-[(4-fluorophenyl)methylene]-4,5,6,7-tetrahydro-N-1-piperidinyl-1H-benzimidazole-3-carboxamide (60 μL, 10 mM) was added to N13. The control was serially diluted 1/3 by transferring and mixing 20 μl sample with 40 μL DMSO. This process resulted 11 doses per control, 10 mM to […].
Cells plated the day prior to the assay in clear bottom plates were viewed on an inverse microscope to ensure confluency in the range of 60-75%. […]

Chain of Human CB1R (Cannabinoid receptor 1) (P21554 whole entry): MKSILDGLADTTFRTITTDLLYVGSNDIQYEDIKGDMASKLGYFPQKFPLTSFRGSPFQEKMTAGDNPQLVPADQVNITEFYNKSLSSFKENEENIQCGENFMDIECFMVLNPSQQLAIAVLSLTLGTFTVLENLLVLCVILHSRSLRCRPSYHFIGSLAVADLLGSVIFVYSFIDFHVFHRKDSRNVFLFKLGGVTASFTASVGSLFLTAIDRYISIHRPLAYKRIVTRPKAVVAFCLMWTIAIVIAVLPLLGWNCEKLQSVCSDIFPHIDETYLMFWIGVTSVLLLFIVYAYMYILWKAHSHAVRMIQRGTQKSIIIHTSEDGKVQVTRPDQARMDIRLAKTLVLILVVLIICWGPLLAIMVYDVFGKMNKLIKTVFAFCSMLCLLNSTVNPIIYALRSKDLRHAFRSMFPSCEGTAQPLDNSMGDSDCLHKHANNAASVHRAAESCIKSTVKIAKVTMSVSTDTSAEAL
Chain of Human CB2R (Cannabinoid receptor 2) (P34972 whole entry): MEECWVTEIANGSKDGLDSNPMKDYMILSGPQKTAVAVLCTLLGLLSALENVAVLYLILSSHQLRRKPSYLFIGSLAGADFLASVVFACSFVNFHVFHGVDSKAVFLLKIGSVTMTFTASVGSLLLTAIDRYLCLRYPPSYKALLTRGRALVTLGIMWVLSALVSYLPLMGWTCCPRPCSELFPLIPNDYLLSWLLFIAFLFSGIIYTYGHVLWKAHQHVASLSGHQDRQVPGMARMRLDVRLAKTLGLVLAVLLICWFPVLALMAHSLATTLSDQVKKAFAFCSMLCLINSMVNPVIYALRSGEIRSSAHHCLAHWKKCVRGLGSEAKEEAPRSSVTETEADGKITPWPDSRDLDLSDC

Turning to `Clc1ccc(C(c2ccc3nc(C4CC4)n(CCc4cccc(Cl)c4)c3c2)c2nccs2)cc1` (stereo not drawn) [Example 423], the 50% effective concentration (EC50) in experiment [1] is 17 nM; in experiment [2] it was greater than 10000 nM.

Regarding `O=S(=O)(N1CCC(n2c(C3CCCO3)nc3ccc(C(c4ccc(Cl)cc4)c4ccc(Cl)cc4)cc32)CC1)C(F)(F)F` (stereo not drawn) [Example 271], the concentration giving a half-maximal response (EC50) is 2.1 nM in experiment [1] and greater than 10000 nM in experiment [2].

For `NC(=O)c1cccc(CN2CCC(n3c(C4CC4)nc4ccc(C(c5ccc(Cl)cc5)c5ccc(Cl)cc5)cc43)CC2)n1` [Example 104], the EC50 in experiment [1] is 12.1 nM; in experiment [2], 6000 nM.

Regarding `O=S(=O)(c1ccccc1O)N1CCC(n2c(C3CC3)nc3ccc(C(c4ccc(Cl)cc4)c4ccc(Cl)cc4)cc32)CC1` [Example 258], the values for the EC50 in experiment [1] and in experiment [2] were 20.1 nM and greater than 10000 nM, respectively.

Consider `O=C(O)c1ccc(CN2CCC(n3c(C4CC4)nc4ccc(C(c5ccc(Cl)cc5)c5ccc(Cl)cc5)cc43)CC2)cc1` [Example 147], for which the EC50 in experiment [1] stood at 10.2 nM; in experiment [2], 7560 nM.

As to `O=C(O)c1cccc(CN2CCC(n3c(C4CC4)nc4ccc(C(c5ccc(Cl)cc5)c5ccc(Cl)cc5)cc43)CC2)c1F` [Example 85], the figures for the EC50 in experiment [1] and in experiment [2] were 17.4 nM and 8100 nM, respectively.

As for `O=C(NCCO)c1cccc(S(=O)(=O)N2CCC(n3c(C4CC4)nc4ccc(C(c5ccc(Cl)cc5)c5ccc(Cl)cc5)cc43)CC2)c1` [Example 205], the EC50 was found to be 36.7 nM in experiment [1] and 5730 nM in experiment [2].

Turning to `O=C(O)c1cc(CN2CCC(n3c(C4CC4)nc4ccc(C(c5ccc(Cl)cc5)c5ccc(Cl)cc5)cc43)CC2)cc(C(F)(F)F)c1` [Example 93], the results for the concentration for a half-maximal effect (EC50) in experiment [1] and in experiment [2] were 63.9 nM and 1750 nM, respectively.

For `NS(=O)(=O)c1ccc(C(=O)N2CCC(n3c(C4CC4)nc4ccc(C(c5ccc(Cl)cc5)c5ccc(Cl)cc5)cc43)CC2)cc1` [Example 230], the EC50 in experiment [1] amounted to 91.9 nM; in experiment [2] it was 5900 nM.

As to `NC(=O)COc1ccc(N2CCC(n3c(C4CC4)nc4ccc(C(c5ccc(Cl)cc5)c5ccc(Cl)cc5)cc43)CC2)cc1` [Example 142], the values for the EC50 in experiment [1] and in experiment [2] were 21.5 nM and 5250 nM, respectively.

On to `O=C(O)c1cccc(CN2CCC(n3c(C4CC4)nc4ccc(C(c5ccc(F)cc5)c5ccc(Cl)cc5)cc43)CC2)c1` (stereo not drawn) [Example 98], for which the EC50 in experiment [1] was 16.2 nM; in experiment [2], greater than 10000 nM.

Consider `NC(=O)c1ccc(S(=O)(=O)N2CCC(n3c(C4CC4)nc4ccc(C(c5ccc(Cl)cc5)c5ccc(Cl)cc5)cc43)CC2)cn1` [Example 238], for which the values for the concentration for a half-maximal effect (EC50) in experiment [1] and in experiment [2] were 1.9 nM and greater than 10000 nM, respectively.

As to `O=C(O)c1ccc(S(=O)(=O)N2CCC(n3c(C4CC4)nc4ccc(C(CO)(c5ccc(Cl)cc5)c5ccc(Cl)cc5)cc43)CC2)cc1Cl` [Example 213], the EC50 in experiment [1] was 8310 nM; in experiment [2], greater than 10000 nM.

For `COC(=O)C(c1ccc(Cl)cc1)(c1ccc(Cl)cc1)c1ccc2nc(C3CC3)n(CC3CCN(S(=O)(=O)C(F)(F)F)CC3)c2c1` [Example 14], the EC50 was 17 nM in experiment [1] and greater than 10000 nM in experiment [2].

As for `O=C(Nc1ccccc1)N1CCC(n2c(C3CC3)nc3ccc(C(c4ccc(Cl)cc4)c4ccc(Cl)cc4)cc32)CC1` [Example 50], the results for the EC50 in experiment [1] and in experiment [2] were 48.1 nM and greater than 10000 nM, respectively.

Take `O=S(=O)(N1CCC(Cn2c(C3CC3)nc3ccc(C(O)(c4ccc(Cl)cc4)c4ccc(Cl)cc4)cc32)CC1)C(F)(F)F` [Example 294]: the 50% effective concentration (EC50) in experiment [1] was 4.6 nM; in experiment [2] it was greater than 10000 nM.

On to `Clc1ccc(C(c2ccc(Cl)cc2)c2ccc3ncn(C4Cc5ccccc5C4)c3c2)cc1` [Example 298], for which the EC50 in experiment [1] was 906 nM; in experiment [2], 9000 nM.

On to `O=C(O)c1ccc(C(F)(F)F)c(CN2CCC(n3c(C4CC4)nc4ccc(C(c5ccc(Cl)cc5)c5ccc(Cl)cc5)cc43)CC2)c1` [Example 80], for which the 50% effective concentration (EC50) was found to be 86.6 nM in experiment [1] and 11400 nM in experiment [2].

For `Nc1cccc(S(=O)(=O)N2CCC(n3c(C4CC4)nc4ccc(C(c5ccc(Cl)cc5)c5ccc(Cl)cc5)cc43)CC2)c1` [Example 52], the EC50 was 9.2 nM in experiment [1] and greater than 10000 nM in experiment [2].

`OC(c1ccc(Cl)cc1)(c1ccc2nc(CC(F)(F)F)n(CCc3cccc(Cl)c3)c2c1)c1nccs1` (stereo not drawn) [Example 339]: the EC50 in experiment [1] was 2410 nM; in experiment [2], greater than 10000 nM.

For `NS(=O)(=O)c1cccc(C(=O)N2CCC(n3c(C4CC4)nc4ccc(C(c5ccc(Cl)cc5)c5ccc(Cl)cc5)cc43)CC2)c1` [Example 229], the EC50 in experiment [1] was determined as 13.7 nM; in experiment [2], 1780 nM.

Regarding `O=C(O)c1ccc(CCn2c(C3CC3)nc3ccc(C(c4ccc(Cl)cc4)c4ccc(Cl)cc4)cc32)cc1` [Example 38], the EC50 in experiment [1] was 4300 nM; in experiment [2] it was 1700 nM.

For `Clc1ccc(C(c2ccc3nc(C4CC4)n(C4CCc5ccccc5C4)c3c2)c2nccs2)cc1` (stereo not drawn) [Example 342], the concentration giving a half-maximal response (EC50) in experiment [1] is 184 nM; in experiment [2], greater than 10000 nM.

For the compound `O=C(O)c1ccc(-c2cccc(S(=O)(=O)NCCCn3c(C4CC4)nc4ccc(C(c5ccc(Cl)cc5)c5ccc(Cl)cc5)cc43)c2)cc1` [Example 8], the concentration giving a half-maximal response (EC50) in experiment [1] is 33.9 nM; in experiment [2] it was 78.2 nM.

One may read the EC50 as the concentration that produces a half-maximal response.
